In ChEMBL document CHEMBL1157539, “Thousands of chemical starting points for antimalarial lead identification” (Nature, 2010):

Each molecule was assayed on Plasmodium falciparum (assay: GSK_TCMDC: Inhibition of Plasmodium falciparum 3D7 in whole erythrocytes, using parasite LDH activity as an index of growth.). Conditions: Plasmodium falciparum, 3D7.
Assay type: functional, organism-based

Structure (SMILES)	XC50 [µM]
CN(Cc1ccc(-c2ccc(C(F)(F)F)cc2)cc1)C(=O)Cn1c(CCc2cccc(F)c2F)cc(=O)c2ccc(OCC3CCCN3C)cc21 (stereo unspecified)	1.07
CC(C)(C)NCCN(Cc1ccc(-c2ccc(C(F)(F)F)cc2)cc1)C(=O)Cn1c(CCc2cccc(F)c2F)nc(=O)c2c1CCC2	0.948
CCN(CC)CCN(Cc1ccc(-c2ccc(C(F)(F)F)cc2)cc1)C(=O)Cn1c(CCc2cccc(F)c2F)nc(=O)c2cc(C)ccc21	0.936
Cc1ccc2c(=O)cc(CCc3cccc(F)c3F)n(CC(=O)N(Cc3ccc(-c4ccc(C(F)(F)F)cc4)cc3)C3CCN(C)CC3)c2n1	1.26
COc1ccc(C2N=C(N)N=C(N)N2OCc2ccccc2)cc1OC (stereo unspecified)	0.133
O=C(Nc1ccc2c(c1)CCC2)c1cnc(N2CCN(c3ccncc3)CC2)c(Cl)c1	1.11
NC1CCCN(Cc2ccc(-c3ccc(-c4nc5ccccc5[nH]4)s3)cc2)C1 (stereo unspecified)	0.672
COc1ccc2nccc(N(C)CC3(O)CCC(NCc4cc5c(cn4)OCCO5)CC3)c2n1 (stereo unspecified)	0.675
CN1CCN(CCCN(Cc2csc(-c3ccc(CNCc4ccccc4)cc3)n2)C(=O)c2cc(F)cc(F)c2)CC1	0.708
CCCNCc1c(O)ccc2c(CNCCC)c(O)ccc12	0.597
CCn1c(-c2nonc2N)nc2c(-c3ccccc3)ncc(OCCCNCCCN3CCOCC3)c21	0.669
CCOc1c(OC)ccc2c1CCN(CCN1CCC(CNC(=O)c3ccc(-c4ccc(C(F)(F)F)cc4)cc3)CC1)C2	0.849
CC(C)C[C@H](Nc1ccc(C#N)c2ccccc12)C(=O)N[C@@H]1CCCc2ccccc21	0.763
CN(CCNCc1ccc(-c2cccc(-c3nc4ccccc4[nH]3)c2)cc1)S(C)(=O)=O	0.945
c1ccc2c(NCCCCCCCCNc3ccnc4ccccc34)ccnc2c1	0.155
CCN(CC)CCN(Cc1ccc(-c2ccc(C(F)(F)F)cc2)cc1)C(=O)CN1C(CCc2cccc(F)c2F)=NS(=O)(=O)c2ccccc21	0.237
COC(=O)c1c(C#N)c(OC)cc(O)c1CSC[C@@H](CN1CCCCC1)Nc1nc(-c2ccc([N+](=O)[O-])cc2)cs1	1.27
CS(=O)(=O)c1ccc(CNCc2ccc(-c3ccc(-c4nc5cc(C(F)(F)F)ccc5[nH]4)s3)cc2)cc1	0.156
CCCNCc1ccc(-c2ccc(CN(CCOC)C(=O)c3ccco3)cc2)nc1	0.997
Fc1ccc(Nc2ccnc3cc(-c4cccc(CN5CCCCC5)c4)ccc23)c(Cl)c1	0.0318
N=c1c2c(n(Cc3ccccc3)c3c1CCC3)CCCC2	0.867
COc1ccc(CCc2ccc(-c3c(C)[nH]c(C)c(Cl)c3=O)cc2)cc1	0.0152
COc1ccc2nccc([C@@H](O)CN3CCC(NCC4COc5ccccc5O4)CC3)c2c1 (stereo partly specified)	0.247
Cc1cccc(Nc2nccc(NCC(O)c3cccc(C(F)(F)F)c3)n2)c1 (stereo unspecified)	0.514

Structure (SMILES)	XC50 [µM]
Cc1nc(C)c(-c2ccc(Oc3ccc([S+](C)[O-])cc3)cc2)c(O)c1Br (stereo unspecified)	0.765
COc1ccc2nc3cc(Cl)ccc3c(NCCCCN3CCNCC3)c2c1	0.183
O=C(Nc1cccc(-c2ccc(-c3nc4cc(C(F)(F)F)ccc4[nH]3)cc2)c1)Nc1ccc(F)c(F)c1F	0.259
O=C(Cc1c[nH]cn1)Nc1ccc(-c2ccc(-c3nc4cc(F)ccc4[nH]3)cc2)cc1	0.731
Cc1cc(C)c(NC(=O)N2CCCN(CCCCCNC(=O)/C=C/c3ccc(Cl)c(Cl)c3)CC2)c(C)c1	0.968
COc1cc2nc(N3CCC(CNC(=O)c4ccc(-c5ccc(-c6noc(C)n6)cc5C)cc4)CC3)nc(N)c2cc1OC	0.215
N#Cc1ccc(CN2CCC(Oc3ccc(NC(=O)c4cccs4)cc3Cl)C2)cc1 (stereo unspecified)	0.402
Cc1cc(=NN=Cc2cccc(Cl)c2)c2ccc(F)cc2[nH]1	0.24
COc1ccc(CN2CCN(CCCCNC(=O)c3ccc(NC(=O)c4ccc(Cl)cc4)cc3)CC2)c(OC)c1	0.89
CNC(=O)Cc1ccc(C(=O)Nc2cccc(-c3ccc(-c4nc5cccc(C)c5[nH]4)s3)c2)cc1	0.632
N=c1n(Cc2ccc(Cl)cc2)c2ccccc2n1CC(O)c1ccc(Cl)c(Cl)c1 (stereo unspecified)	0.677
CCCOc1ccc(CCNCCCCNCCc2ccc(OCCC)c3ccccc23)c2ccccc12	0.917
Cc1cc(Nc2nc(Nc3cccc(Cl)c3)nc3ccccc23)n[nH]1	0.287
COc1ccc(Cc2c(Cl)nc3nc(N)nc(N)c3c2C)cc1	1.09
N#Cc1cccc(Nc2nccc(Nc3ccc(Oc4ccccc4)cc3)n2)c1	0.831
Cc1c(Oc2ccc(-n3ccnc3)cc2)ncnc1N1CCC2(CC1)CNCc1ccccc12	0.887
Cc1c(CNCCN2CCCCC2)c(C(=O)O)c(C)n1Cc1ccc(Cl)cc1	0.416
CCCNC(=O)CN1CN(c2ccccc2)C2(CCN(C(=O)c3ccc(C(C)(C)C)cc3)CC2)C1=O	0.466
Cc1cc(Nc2ccncc2)n2nc(C)c(-c3ccccc3Cl)c2n1	0.654
Cc1cc(N2CCCC2)nc(Nc2ccc(NC(=O)c3cccc(F)c3)cc2)n1	0.182
COc1ccccc1CNC(=O)c1ccc(N2CCN(c3ccncc3)CC2)cn1	1.36
CCCCCNc1nc2nc(N)nc(N)c2nc1-c1ccccc1	0.954
Cc1ccc(Nc2nccc(Nc3ccc4c(C)n[nH]c4c3)n2)cc1F	0.785
O=C(Nc1ccc(CCN2CCC(c3nc(COCC(F)(F)F)c(-c4ccccc4)o3)CC2)cc1)c1ccc(F)cc1	1.97

Structure (SMILES)	XC50 [µM]
Cc1cccc2nc(-c3ccc(-c4cccc(NC(=O)Nc5ccccc5)c4)cc3)[nH]c12	0.715
COc1ccc2nccc([C@@H](O)CN3CCC(NCc4nc5c(OCc6ccccc6)cccc5[nH]4)CC3)c2c1	0.178
CCCCCCCN1CC[C@@H](CCC(O)c2ccnc3ccc(OC)cc23)[C@@H](CC)C1 (stereo partly specified)	0.754
Cc1cc2ncn(-c3nccc(NCc4cccnc4)n3)c2cc1C	0.664
Cc1ccc(N2C(N)=NC(N)=NC2(C)C)cc1Cl	0.00682
Oc1ccc(CCCNc2nc(NCc3ccccc3-c3ccccc3)nc(N3CCNCC3)n2)cc1	0.713
Cc1[nH]n(-c2cccc(C(F)(F)F)c2)c(=O)c1-c1ccc(Cl)cc1	0.856
CC1(C)N=C(N)N=C(N)N1OCCCOc1cccc(C(=O)O)c1	0.0399
Cc1[nH]c(C)c(Cc2ccc(Oc3ccc(OC(F)(F)F)cc3)cc2)c(=O)c1Br	0.686
COc1c(Br)cc(Br)cc1-c1ccc(CN2C3CCCC2CCC3)[nH]1	1.11
CC(C)(C)c1ccc(-c2csc(NC(=O)CC(c3ccccc3)c3ccccc3)n2)cc1	1.15
Oc1cccc(-c2cnc3ccc(NCc4ccc(F)cc4)nn23)c1	1.08
O=C(NCCN1CCC(NC(=O)c2ccc(-c3ccccn3)s2)CC1)c1cccc(C(F)(F)F)c1	0.861
Oc1ccc(CCNCCCCCCNCCc2ccc(Cl)c(Cl)c2)cc1O	0.726
Cc1cccc2nc(-c3ccc(-c4cccc(NC(=O)NCc5ccc(F)cc5)c4)cc3)[nH]c12	0.146
CN1CCN(CC(=O)Nc2ccc(-c3ccc(-c4nc5cc(C(F)(F)F)ccc5[nH]4)cc3)cc2)CC1	0.42
CCc1c[nH]c2c(N3CCCS3(=O)=O)cc(C(=O)N[C@@H](Cc3ccccc3)[C@H](O)CNC3CCCCC3)cc12	0.774
COc1ccc(Cn2cncc2CN(CCC(C)C)C(=O)c2ccc(Cl)nc2Cl)cc1	1.04
O=C(NCCN1CCCC1)c1ccc(-c2ccc(-c3nc4ccccc4[nH]3)s2)cc1	0.938
Cc1cc(OCC2CCN(c3ncc(C(=O)NC4CC4)cc3Cl)CC2)ccc1F	0.789
CN1Cc2cc(NC(=O)/C=C/c3ccccc3Cl)ccc2C(C)(C)C1	0.641
CN1CCN(c2ccc(Nc3ccnc4ccc(-c5ccccc5)cc34)cc2)CC1	0.0929
COc1cc(NC(=O)c2sc(-c3ccc(Cl)cc3)cc2NC(=O)CN2CCCC2)ccc1OCCN1CCCC1	0.927
N#Cc1ccnc(-c2ccc(CNC3CCN(CC4Cn5c(=O)ccc6ccc(F)c4c65)CC3)cc2)c1 (stereo unspecified)	1.22

Structure (SMILES)	XC50 [µM]
O=C(Cc1ccc[n+]([O-])c1)Nc1cccc(-c2cccc(-c3nc4cc(F)ccc4[nH]3)c2)c1	0.897
Cc1cccc(-n2nc(C)c3c2NC(=O)CC3C(=O)c2ccc(Cl)s2)c1 (stereo unspecified)	0.466
CNS(=O)(=O)Cc1ccc(Nc2nccc(Nc3cccc4c3cnn4C(=O)Nc3ccccc3)n2)cc1	0.959
COc1cc(NC(=O)c2nn(CCCN3CCC(N4CCCC4)CC3)cc2-c2ccc(Cl)c(Cl)c2)cc(OC)c1OC	0.555
COc1ccccc1CNC(=O)c1cc(C2CC2)nc2c1cnn2C(C)C	1.02
c1cc(CNCc2ccc3c(c2)OCO3)cc(-c2cccc(CNc3ccc4ncccc4c3)c2)c1	0.76
Cc1cccc(C(=O)Nc2ccnc(N3CCCN(Cc4cccc(O)c4)CC3)c2)c1	1.21
Cc1ccc(CN2CCN(c3cc4c(cc3Cl)CCN4C(=O)Cc3ccc(NC(=O)c4ccc(C(F)(F)F)cc4)cc3)CC2)cc1	0.935
CC1(C)NC(N)=NC(=N)N1OCCOc1ccc(Cc2ccccc2)cc1	0.044
O=C1C(c2ccccc2)=C(Nc2cccc([N+](=O)[O-])c2)c2ccccc21	0.892
CN(C)C(=O)CC(=O)NCc1c(Cl)cccc1Cl	0.203
Nc1nc(N)c2c(Oc3cccnc3)cccc2n1	0.886
O=C(Cc1cc(=O)oc2cc(O)ccc12)NC1CCC(CN2CCC(c3c[nH]c4ccccc34)CC2)CC1 (stereo unspecified)	1.13
CO/C(=C\C=C\c1cc2cc(Cl)c(Cl)cc2[nH]1)C(=O)NC1CCN(CCNc2ccccc2)CC1	0.258
N=C(Nc1ccccc1)Nc1cccc(Cc2ccc([N+](=O)[O-])cc2)n1	0.945
C=CCNC(=O)C(C)c1ccc2cc(OC)ccc2c1 (stereo unspecified)	0.42
CCN(CC)S(=O)(=O)c1ccc(Cl)c(C(=O)Nc2ccc3nc(C)sc3c2)c1	0.798
NCc1ccc(CNCc2cccc(-c3cccc(-c4nc5cc(F)ccc5[nH]4)c3)c2)cc1	0.308
CC(C)CNC(=O)c1ccnc(-c2ccc(CNC3Cc4ccccc4C3)cc2)c1	0.79
O=C(/C=C/c1cc(C(F)(F)F)ccc1F)N1CCC(CN2CCC(c3c[nH]c4ccccc34)CC2)CC1	0.994
CCc1c(C)nc(-n2nc(C)cc2NC(=O)c2cccc3ccccc23)[nH]c1=O	0.682
O=C(Nc1cccc(CN2CCCN(Cc3cccc(O)c3)CC2)c1)c1cc2ccccc2s1	0.365
Cc1cc(-c2cc(-c3ccc(OCCN(C)C)cc3)[nH]c2-c2ccc3c(c2)CCC3=NO)ccn1	0.867
CC(C)CNCc1cccc(-c2cccc(CN(C(=O)NC3CCCCC3)C3CCN(Cc4ccccc4)CC3)c2)c1	0.821
